Entries after “also recorded” stand apart in the source; their conditions may differ.
Tests used:
Empoasca leafhoppers = experiment: In vivo Empoasca choice assay, compounds infiltrated into irMYC2 leaves; parameters: species or system Empoasca decipiens; conditions: synthetic CoP 7 μM, CP 100 μM, FP 10 μM in 0.1% DMSO infiltrated into irMYC2 leaves
Method: The spermi-dine-derived metabolites could be excluded as mediators of Empoasca nonhost resistance based on the lack of responses of leafhoppers to the irDH29 and irCV86 lines (FIG. 5). To further explore the involvement of CoP, CP and FP, in vivo Empoasca choice assays were conducted by individually infiltrating physiologically relevant concentrations of synthetic CoP (7 μM), CP (100 μM) and FP (10 μM) into leaves of irMYC2 plants which were devoid of elicited phenolamides (FIG. 9 and FIG. 34).
Two replicates of the 650 RILs from a 26-parent MAGIC population and their 26 parental 5 lines were planted at the WCCER field station, Prescott, Arizona, USA. To elicit a standardized herbivory response, leaves of all RILs, which were in the early-flowering stage were wounded and immediately treated with diluted Manduca sexta oral secretions (W+OS) or left untreated (control) and harvested on dry ice at 1 h and 72h. One week after metabolite sampling, all plants of the field population were screened for natural Empoasca leafhopper numbers and damage; these leafhoppers had opportunistically sampled the N. attenuata plants from neighboring native cu-cumber hostplants. The mQTL and eQTL mapping between SNPs and the relative abundance of each compound or transcript using a set of 646 RILs of the MAGIC population was done with the R package software GAPIT using General linear models (GLM). The multi-omics co-association network was built from correlations among metabolomes, transcriptomes, phytohormones and SNPs. […] Metabolome diversity and specialization and metabolic specificity was calculated using information theory by consider-ing the Shannon entropy of the idMS/MS frequency distributions. […] OS-induced volatile emissions were collected using polydimethylsiloxane (PDMS) tubing from 650 MAGIC RILs planted in the main MPI-CE glasshouse and analyzed bythermal desorption-gas chromatography-mass spectrometry (TD-GC-MS). […]

Empoasca decipiens = experiment: In vitro Empoasca non-choice (direct feeding) assay on artificial diet; type: in vivo; conditions: for changes in mortality rates of E. decipiens compared to glucose controls: physiologically relevant concentrations (CoP 7 μM, CP 100 μM, FP 10 μM) in 10% glucose solution
Method: FIG. 18 Mortality rates of in vitro Empoasca non-choice assays (n=4, 25 Empoasca leafhoppers per replicate) in which Empoasca were fed for 6 h with either 1 μM m/z 347.19 synthesized by using NaPPO1/NaPPO2 and CP and Z3H and diluted in 10% glucose solution or with 10% glucose as control (top). Empoasca in planta choice assays (n=8) conducted with VIGS plants of EV, PPO1, PPO2 and AT1 (bottom).
To test if CPH is responsible for Empoasca resistance, E. decipiens were fed with physiologically relevant concentrations of 1 μM (estimated from field-collected elicited leaves) of NMR-confirmed CPH in diets containing 10% glucose in vitro. […] NaAT1 expression was silenced in N. attenuata plants using VIGS, which disrupted the production of both CP and the CPH (Li et al., Proc Natl Acad Sci USA 112, E4147-4155 (2015)) (FIG. 13).
Empoasca feeding assays: The survival rate of Empoasca feeding on artificial diet (10% 5 sucrose in water) supplemented with caffeoylputrescine (CP, 100 μM), coumaroylputrescine (CoP, 7 μM), feruloylputrescine (FP, 10 μM), or the m/z 347.19 hexenyl derivative of CP (CPH, 1 μM) was recorded every 1 h overnight. The artificial feeding devices consisted of a 50-mL Falcon tube with a 7-mm hole drilled into the conical bottom through which the leafhoppers were aspi-rated into the tube and which then was covered with Parafilm punctured with needles to create ventilation holes. The large opening of the Falcon tube was covered with a double layer of Parafilm containing the liquid diet (100 μL). The artificial feeding devices were placed upside down with the liquid diet side down on a White Light Box (STRATAGENE) to provide bottom-light illu-mination.

[1] = Stability of m/z 347.19 during sample extraction and purification; type: physicochemical
Excerpt: (§1) To elucidate the chemical structure of m/z 347.19, it was attempted to isolate and purify the m/z 347.19 using induced N. attenuata leaf material and enzyme assay-derived products. However, several attempts failed due to the instability of m/z 347.19. […] These observations indicate that m/z 347.19 is reactive and unstable at high pH. The purification procedures for m/z 347.19 were modified to produce large quantities from enzymatic assays under weak acidic conditions and purified m/z 347.19 using solid phase extraction under argon atmospheres. The purified m/z 347.19 was then subjected to NMR analysis, which elucidated its structural identity as a CP-5-(Z)-3-hexenal compound (hereafter named CPH) (FIG. 54). […] CPH contains both a reactive moiety of a, 3-unsaturated aldehyde derived from (Z)-3-hexenal, which is electrophilic, and an amine feature of the caffeoylputrescine, which is nucleophilic.

[2] = Estimation of half-life of m/z 347.19 by NMR time acquisitions; type: physicochemical; conditions: acidified methanol-d3 (0.1% formic acid), room temperature, darkness
Excerpt: FIG. 55 Estimation of half-life of m/z 347.19. Different time acquisitions of NMR spectra for purified m/z 347.19 are shown.
as §1

NaPPO1 = molecular target: T1, NaPPO1 (Nicotiana attenuata, UniProt A0A1J6JLI9); experiment: In vitro enzyme assay, substrate specificity of NaPPO1; type: biochemical
T1 sequence (A0A1J6JLI9 1-596): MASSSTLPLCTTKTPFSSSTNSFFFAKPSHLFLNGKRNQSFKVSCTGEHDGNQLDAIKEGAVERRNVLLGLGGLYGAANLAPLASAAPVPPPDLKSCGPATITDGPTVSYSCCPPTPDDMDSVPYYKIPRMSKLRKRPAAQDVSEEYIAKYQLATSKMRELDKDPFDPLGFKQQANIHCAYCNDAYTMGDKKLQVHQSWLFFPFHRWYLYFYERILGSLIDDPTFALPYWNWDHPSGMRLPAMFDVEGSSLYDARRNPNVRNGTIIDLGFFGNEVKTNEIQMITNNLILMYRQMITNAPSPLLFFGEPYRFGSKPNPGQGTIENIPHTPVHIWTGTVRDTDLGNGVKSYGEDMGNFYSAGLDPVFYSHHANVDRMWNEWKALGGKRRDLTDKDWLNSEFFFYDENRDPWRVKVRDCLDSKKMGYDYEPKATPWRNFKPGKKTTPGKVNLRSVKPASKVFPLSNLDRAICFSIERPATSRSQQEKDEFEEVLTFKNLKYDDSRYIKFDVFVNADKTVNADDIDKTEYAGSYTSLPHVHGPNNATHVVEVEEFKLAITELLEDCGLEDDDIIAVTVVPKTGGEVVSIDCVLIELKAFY
Excerpt: (§2) Extracted ion chromatograms (EIC) for doubly charged CP dimer (m/z 250.13) and m/z 347.19 in E. coli expressing NaPPO1 and NaPPO2 with CP and Z3H or (E)-2-hexenal. Compounds 1, 2, 3, 4 denote isomers of CP dimer; compounds 5, 6 denote isomers of m/z 347.19.
(§3) FIG. 53 Substrate specificity of NaPPO1 and NaPPO2 enzymes. Overlay of total ion chromatograms (TIC) of enzyme assays for authentic chlorogenic acid (CGA std), N-coumaroylputrescine (CoP std), (Z)-3-hexenal or (E)-2-hexenal with purified NaPPO1/NaPPO2 from E. coli. Compounds 1 and 2 denote CGA and CoP; 3 and 4 denote contamination peaks from (Z)-3-hexenal and CoP standards, respectively.
(§4) To test this hypothesis, purified NaPPO1, NaPPO2 and NaBBL2 proteins with N-terminal hexahistidine tags after expression in Escherichia coli were isolated (FIGS. 44-45). Incubation of either NaPPO1 or NaPPO2 (NaPPO1/2) with CP and (Z)-3-hexenal yielded a m/z 347.19 peak with identical MS/MS spectrum and retention time as the m/z 347.19 induced in N. attenuata leaves (FIG. 46). Additionally, by-products of doubly charged CP dimers at m/z 250.13 ([M+2H]2+, C26H36N4O62+) which are not detected in oral secretion-induced leaves of N. attenuata WT (Data 2) were also produced in vitro (FIG. 16 and FIG. 47). These doubly charged CP dimers were only produced when the quantities of the (Z)-3-hexenal substrate were lower than those of the CP substrate in vitro. […]
(§5) In vitro assays of NaPPO1, NaPPO2, and NaBBL2: NaPPO1, NaPPO2, and NaBBL2 enzyme activity assays were performed by incubating 100 μg of the purified recombinant protein in 84 mM acetate buffer (pH 4.8) containing 20 mM (E)-N-caffeoylputrescine (BOC Sciences, catalogue #: B0005-053482) and 1 M cis-3-hexenal (Sigma, catalogue #: W256102-SAMPLE-K) or trans-2-hexenal (Sigma, catalogue #: W256005-1KG-K). During incubation of the enzyme reactions at 8° C., 1 μL of the reactions buffer was directly injected and analyzed by LC-MS every h to detect products. […]

NaPPO2 = NaPPO2 (Nicotiana attenuata, UniProt A0A1J6IKE9); experiment: In vitro enzyme assay, substrate specificity of NaPPO2; type: biochemical
NaPPO2, sequence (A0A1J6IKE9 entry or part of it): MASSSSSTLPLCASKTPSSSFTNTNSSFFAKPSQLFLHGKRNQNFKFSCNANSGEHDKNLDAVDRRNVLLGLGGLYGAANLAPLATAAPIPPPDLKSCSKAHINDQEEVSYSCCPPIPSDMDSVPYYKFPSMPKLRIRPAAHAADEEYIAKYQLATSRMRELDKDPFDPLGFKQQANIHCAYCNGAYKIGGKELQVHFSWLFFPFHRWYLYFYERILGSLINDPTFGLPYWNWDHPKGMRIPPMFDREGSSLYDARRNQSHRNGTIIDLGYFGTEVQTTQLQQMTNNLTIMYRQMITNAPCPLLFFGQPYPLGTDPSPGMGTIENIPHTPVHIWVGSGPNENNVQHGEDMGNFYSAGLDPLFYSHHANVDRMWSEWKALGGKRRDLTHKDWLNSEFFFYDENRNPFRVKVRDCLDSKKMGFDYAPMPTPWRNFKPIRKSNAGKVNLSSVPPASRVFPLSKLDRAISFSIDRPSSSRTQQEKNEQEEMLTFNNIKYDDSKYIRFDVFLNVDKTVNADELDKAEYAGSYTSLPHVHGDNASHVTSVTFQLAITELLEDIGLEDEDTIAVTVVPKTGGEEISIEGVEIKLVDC
Excerpt: as §2, §3, §4, §5

Structure (SMILES): COc1cc(/C=C/C(=O)NCCCCN)ccc1O [FP, N-feruloylputrescine]
- preference of Empoasca for irMYC2 plants (Empoasca leafhoppers): did not alter the preference; also recorded: not affecting leafhopper behavior or performance
- changes in mortality rates of E. decipiens compared to glucose controls (Empoasca decipiens): no significant changes in mortality rates; also recorded: not affecting leafhopper behavior or performance

Structure (SMILES): NCCCCNC(=O)/C=C/c1ccc(O)c(O)c1 [CP, N-caffeoylputrescine]
- preference of Empoasca for irMYC2 plants (Empoasca leafhoppers): did not alter the preference; also recorded: not affecting leafhopper behavior or performance
- changes in mortality rates of E. decipiens compared to glucose controls (Empoasca decipiens): no significant changes in mortality rates; also recorded: not affecting leafhopper behavior or performance

Structure (SMILES): CCC(/C=C/C=O)c1cc(O)c(O)cc1/C=C/C(=O)NCCCCN (centres unmarked) [CPH, CP-5-(Z)-3-hexenal]
- Stability ([1]; Leaf sample collection using Eppendorf tubes without direct contact with liquid N2): Yes
- Stability ([1]; Leaf sample collection using aluminium foil in liquid N2): No
- Stability ([1]; Purifying using SPE column with argon flow): Yes
- Stability ([1]; Purifying using freeze drying): No
- Stability ([1]; Purifying using rotary evaporator): No
- Stability ([1]; Sample extraction buffer pH 4.8): Yes
- Stability ([1]; Sample extraction buffer pH 10): No
- stability in buffer ([1]; ammonium-acetate buffer (pH 4.8)): relatively stable
- stability when concentrated ([1]; concentrated by rotatory evaporation or freeze drying): rapidly decomposed
- stability at high pH ([1]; high pH): unstable
- mortality at 1 µM (Empoasca decipiens; Empoasca decipiens, feed or water, 1 μM in diet containing 10% glucose, after 6 h of feeding, vs control diet, read-out: mortality of E. decipiens): ~100%
- half-life [2]: ~22 h

Structure (SMILES): CCC/C=C/C=O [(E)-2-hexenal]
- enzyme activity (m/z 347.19 production) (NaPPO1; NaPPO1 incubated with CP and (E)-2-hexenal): little-to-no activity
- enzyme activity (m/z 347.19 production) (NaPPO2; NaPPO2 incubated with CP and (E)-2-hexenal): little-to-no activity

Structure (SMILES): O=C(/C=C/c1ccc(O)c(O)c1)O[C@@H]1C[C@](O)(C(=O)O)C[C@@H](O)[C@H]1O [CGA, chlorogenic acid]
- acceptance as substrate (new products) (NaPPO1; incubated with NaPPO1 and (Z)-3-hexenal): not accepted as substrates
- acceptance as substrate (new products) (NaPPO2; incubated with NaPPO2 and (Z)-3-hexenal): not accepted as substrates

From patent US20250051266A1, “Novel GLV-Phenolamide: Biosynthesis and Function in Protecting Plants from Herbivore Attack” (Max-Planck-Gesellschaft zur Förderung der Wissenschaften …, priority 2021, published 2025)
